In US12714706B2, “Methods of treating small cell lung cancer with lurbinectedin formulations” (PHARMA MAR, S.A., priority 2019, dated 2026):
Converted amounts (≈) assume the structure as drawn. Like-named read-outs stand apart in the source and are kept apart here.

Key:
[1] = lurbinectedin single agent 3.2 mg/m2 (ref); n=329; mean (SD); cited from earlier work
[2] = Phase 2 trial of lurbinectedin monotherapy: plasma pharmacokinetics; assay type: in vivo; conditions: human, intravenous, 3.2 mg/m^2 as 1-hour infusion
Procedure: The plasma PK of lurbinectedin was evaluated during Cycles 1 and 2 in all treated patients. The sampling schedule is shown in Table 15 and Table 16, respectively.
PK analysis of plasma-concentration-time data of lurbinectedin was performed using non-linear mixed-effects modeling and/or non-compartment analysis.

physchem = conditions: pH 4, aqueous buffer
Procedure: Bulk solutions of phosphate, acetate, citrate, lactate and succinate buffers were prepared to determine maximum solubility of lurbinectedin.

SCLC patients = test: Phase 2 trial of lurbinectedin monotherapy in SCLC: safety evaluation (NCI-CTCAE v4); assay type: in vivo, human
Procedure: Patients were evaluated for safety if they had received any partial or complete infusion of lurbinectedin. All adverse events were graded according to the National Cancer Institute-Common Toxicity Criteria for Adverse Events (NCI-CTCAE, v4). The safety profile of patients was monitored throughout the treatment and up to 30 days after the last lurbinectedin infusion (end of treatment), or until the patient started a new anti-tumor therapy or until the date of death, whichever occurred first. Treatment delays, dose reduction requirements, transfusions, and reason for treatment discontinuation was monitored throughout the study. Any treatment-related adverse events were followed until recovery to at least grade 1 or stabilization of symptoms or until the start of a new anti-tumor therapy, whichever occurred first.

[3] = Sodium acetate pH 3, 25°C/60% RH
[4] = Sodium acetate pH 3, 14 d 25°C/60% RH
[5] = Sodium acetate pH 4, 25°C/60% RH
[6] = Sodium acetate pH 4, 14 d 25°C/60% RH
[7] = Sodium acetate pH 5, 25°C/60% RH
[8] = Sodium acetate pH 5, 14 d 25°C/60% RH
[9] = Sodium citrate pH 3, 25°C/60% RH
[10] = Sodium citrate pH 3, 14 d 25°C/60% RH
[11] = Sodium citrate pH 4, 25°C/60% RH
[12] = Sodium citrate pH 4, 14 d 25°C/60% RH
[13] = Sodium citrate pH 5, 25°C/60% RH
[14] = Sodium citrate pH 5, 14 d 25°C/60% RH
[15] = Sodium lactate pH 3, 25°C/60% RH
[16] = Sodium lactate pH 3, 14 d 25°C/60% RH
[17] = Sodium lactate pH 4, 25°C/60% RH
[18] = Sodium lactate pH 4, 14 d 25°C/60% RH
[19] = Sodium lactate pH 5, 25°C/60% RH
[20] = Sodium lactate pH 5, 14 d 25°C/60% RH
[21] = Sodium succinate pH 3, 25°C/60% RH
[22] = Sodium succinate pH 3, 14 d 25°C/60% RH
[23] = Sodium succinate pH 4, 25°C/60% RH
[24] = Sodium succinate pH 4, 14 d 25°C/60% RH
[25] = Sodium succinate pH 5, 25°C/60% RH
[26] = Sodium succinate pH 5, 14 d 25°C/60% RH
[27] = 105 SCLC patients, 3.2 mg/m^2 q3wk
[28] = biochemical abnormality regardless of relation to study drug, patients with laboratory data, NCI-CTCAE v4.0, SCLC
[29] = haematological abnormality regardless of relation to study drug, NCI-CTCAE v4.0, 105 treated SCLC patients
[30] = treatment-related adverse event, NCI-CTCAE v4.0, 105 treated SCLC patients

Question: Which results are given for COc1ccc2[nH]c3c(c2c1)CCN[C@]31CS[C@@H]2c3c(OC(C)=O)c(C)c4c(c3[C@H](COC1=O)N1[C@@H]2[C@H]2c3c(cc(C)c(OC)c3O)C[C@@H]([C@@H]1O)N2C)OCO4 [lurbinectedin, Lurbinectedin]?
Answer: CL [1]: 12.4 (7.6) L/h; Cmax [1]: 127.5 (100.2) ug/L; HL [1]: 42.6 (38.4) h; Vz [1]: 664.7 (460.3) L; AUC(0-inf) [2]: ~551 ng·h/mL; Cmax ([2]; read-out: Mean total plasma Cmax): ~0.107 µg/mL; solubility (physchem; monopotassium phosphate buffer): 210 µg/mL (≈ 268 µM); solubility (physchem; sodium acetate buffer): 940 µg/mL (≈ 1200 µM); solubility (physchem; sodium citrate buffer): 930 µg/mL (≈ 1180 µM); solubility (physchem; sodium lactate buffer): 900 µg/mL (≈ 1150 µM); solubility (physchem; sodium succinate buffer): 970 µg/mL (≈ 1240 µM); Concentration t = 0 h (Sodium acetate pH 3): 950 µg/mL; Purity t = 0 h (Sodium acetate pH 3): 99.2%; Concentration t = 14 d [3]: 880 µg/mL; Purity t = 14 d [3]: 98.0%; Concentration decrease [4]: 6.8%; Degradation [4]: 1.2%; Concentration t = 0 h (Sodium acetate pH 4): 940 µg/mL; Purity t = 0 h (Sodium acetate pH 4): 99.2%; Concentration t = 14 d [5]: 890 µg/mL; Purity t = 14 d [5]: 98.0%; Concentration decrease [6]: 5.7%; Degradation [6]: 1.2%; Concentration t = 0 h (Sodium acetate pH 5): 30 µg/mL; Purity t = 0 h (Sodium acetate pH 5): 95.4%; Concentration t = 14 d [7]: 30 µg/mL; Purity t = 14 d [7]: 93.7%; Concentration decrease [8]: 8.2%; Degradation [8]: 1.7%; Concentration t = 0 h (Sodium citrate pH 3): 940 µg/mL; Purity t = 0 h (Sodium citrate pH 3): 99.4%; Concentration t = 14 d [9]: 920 µg/mL; Purity t = 14 d [9]: 97.9%; Concentration decrease [10]: 1.2%; Degradation [10]: 1.6%; Concentration t = 0 h (Sodium citrate pH 4): 930 µg/mL; Purity t = 0 h (Sodium citrate pH 4): 99.4%; Concentration t = 14 d [11]: 880 µg/mL; Purity t = 14 d [11]: 96.2%; Concentration decrease [12]: 6.0%; Degradation [12]: 3.2%; Concentration t = 0 h (Sodium citrate pH 5): 500 µg/mL; Purity t = 0 h (Sodium citrate pH 5): 99.3%; Concentration t = 14 d [13]: 110 µg/mL; Purity t = 14 d [13]: 95.0%; Concentration decrease [14]: 78.5%; Degradation [14]: 4.3%; Concentration t = 0 h (Sodium lactate pH 3): 940 µg/mL; Purity t = 0 h (Sodium lactate pH 3): 99.3%; Concentration t = 14 d [15]: 930 µg/mL; Purity t = 14 d [15]: 98.6%; Concentration decrease [16]: 0.9%; Degradation [16]: 0.7%; Concentration t = 0 h (Sodium lactate pH 4): 900 µg/mL; Purity t = 0 h (Sodium lactate pH 4): 99.3%; Concentration t = 14 d [17]: 870 µg/mL; Purity t = 14 d [17]: 97.8%; Concentration decrease [18]: 3.0%; Degradation [18]: 1.5%; Concentration t = 0 h (Sodium lactate pH 5): 30 µg/mL; Purity t = 0 h (Sodium lactate pH 5): 96.5%; Concentration t = 14 d [19]: 30 µg/mL; Purity t = 14 d [19]: 93.9%; Concentration decrease [20]: 6.9%; Degradation [20]: 2.6%; Concentration t = 0 h (Sodium succinate pH 3): 960 µg/mL; Purity t = 0 h (Sodium succinate pH 3): 99.3%; Concentration t = 14 d [21]: 930 µg/mL; Purity t = 14 d [21]: 97.7%; Concentration decrease [22]: 3.2%; Degradation [22]: 1.5%; Concentration t = 0 h (Sodium succinate pH 4): 970 µg/mL; Purity t = 0 h (Sodium succinate pH 4): 99.2%; Concentration t = 14 d [23]: 890 µg/mL; Purity t = 14 d [23]: 96.8%; Concentration decrease [24]: 7.6%; Degradation [24]: 2.4%; Concentration t = 0 h (Sodium succinate pH 5): 40 µg/mL; Purity t = 0 h (Sodium succinate pH 5): 95.9%; Concentration t = 14 d [25]: 30 µg/mL; Purity t = 14 d [25]: 94.2%; Concentration decrease [26]: 8.1%; Degradation [26]: 1.8%; Patients with dose delays caused by neutropenia (SCLC patients; 105 SCLC patients): 12%; Patients with dose reductions caused by neutropenia (SCLC patients; 105 SCLC patients): 16%; Patients with dose administration delayed because of treatment-related adverse events (SCLC patients; [27]): 22%; Patients with dose reduced because of treatment-related adverse events (SCLC patients; [27]): 26%; Discontinuation because of treatment-related adverse events (SCLC patients; 105 treated patients): 2%; Drug-induced liver injury (SCLC patients; 105 treated patients): no cases; Grade 3-4 anemia (SCLC patients; 105 treated patients): 9%; Grade 3-4 febrile neutropenia (SCLC patients; 105 treated patients): 5%; Grade 3-4 leukopenia (SCLC patients; 105 treated patients): 29%; Grade 3-4 neutropenia (SCLC patients; 105 treated patients): 46%; Grade 3-4 thrombocytopenia (SCLC patients; 105 treated patients): 7%; Grade 3 pneumonia (SCLC patients; 105 treated patients): 2%; Patients who received G-CSF secondary prophylaxis or therapy for neutropenia (SCLC patients; 105 treated patients): 22%; Serious treatment-related adverse events (SCLC patients; 105 treated patients): 10%; Serious treatment-related febrile neutropenia (SCLC patients; 105 treated patients): 5%; Serious treatment-related neutropenia (SCLC patients; 105 treated patients): 5%; Treatment-related deaths (SCLC patients; 105 treated patients): No treatment-related deaths; Alanine aminotransferase, Grade 4 (SCLC patients; [28]): 0 n (%) of patients; Alkaline phosphatase, Grade 4 (SCLC patients; [28]): 0 n (%) of patients; Aspartate aminotransferase, Grade 4 (SCLC patients; [28]): 0 n (%) of patients; Creatinine, Grade 3 (SCLC patients; [28]): 0 n (%) of patients; Creatinine, Grade 4 (SCLC patients; [28]): 0 n (%) of patients; Anaemia, Grade 1-2 (SCLC patients; [29]): 91 (87%) n (%) of patients; Anaemia, Grade 3 (SCLC patients; [29]): 9 (9%) n (%) of patients; Anaemia, Grade 4 (SCLC patients; [29]): 0 n (%) of patients; Leucopenia, Grade 1-2 (SCLC patients; [29]): 53 (50%) n (%) of patients; Leucopenia, Grade 3 (SCLC patients; [29]): 20 (19%) n (%) of patients; Leucopenia, Grade 4 (SCLC patients; [29]): 10 (10%) n (%) of patients; Neutropenia, Grade 1-2 (SCLC patients; [29]): 27 (26%) n (%) of patients; Neutropenia, Grade 3 (SCLC patients; [29]): 22 (21%) n (%) of patients; Neutropenia, Grade 4 (SCLC patients; [29]): 26 (25%) n (%) of patients; Thrombocytopenia, Grade 1-2 (SCLC patients; [29]): 39 (37%) n (%) of patients; Thrombocytopenia, Grade 3 (SCLC patients; [29]): 3 (3%) n (%) of patients; Thrombocytopenia, Grade 4 (SCLC patients; [29]): 4 (4%) n (%) of patients; Decreased appetite, Grade 1-2 (SCLC patients; [30]): 22 (21%) n (%) of patients; Decreased appetite, Grade 3 (SCLC patients; [30]): 0 n (%) of patients; Decreased appetite, Grade 4 (SCLC patients; [30]): 0 n (%) of patients; Diarrhoea, Grade 1-2 (SCLC patients; [30]): 13 (14%) n (%) of patients; Diarrhoea, Grade 3 (SCLC patients; [30]): 1 (1%) n (%) of patients; Diarrhoea, Grade 4 (SCLC patients; [30]): 0 n (%) of patients; Fatigue, Grade 1-2 (SCLC patients; [30]): 54 (51%) n (%) of patients; Fatigue, Grade 3 (SCLC patients; [30]): 7 (7%) n (%) of patients; Fatigue, Grade 4 (SCLC patients; [30]): 0 n (%) of patients; Febrile neutropenia, Grade 1-2 (SCLC patients; [30]): 0 n (%) of patients; Febrile neutropenia, Grade 3 (SCLC patients; [30]): 2 (2%) n (%) of patients; Febrile neutropenia, Grade 4 (SCLC patients; [30]): 3 (3%) n (%) of patients; Nausea, Grade 1-2 (SCLC patients; [30]): 34 (32%) n (%) of patients; Nausea, Grade 3 (SCLC patients; [30]): 0 n (%) of patients; Nausea, Grade 4 (SCLC patients; [30]): 0 n (%) of patients; Pneumonia, Grade 1-2 (SCLC patients; [30]): 0 n (%) of patients; Pneumonia, Grade 3 (SCLC patients; [30]): 2 (2%) n (%) of patients; Pneumonia, Grade 4 (SCLC patients; [30]): 0 n (%) of patients; Skin ulcer, Grade 1-2 (SCLC patients; [30]): 0 n (%) of patients; Skin ulcer, Grade 3 (SCLC patients; [30]): 1 (1%) n (%) of patients; Skin ulcer, Grade 4 (SCLC patients; [30]): 0 n (%) of patients; Vomiting, Grade 1-2 (SCLC patients; [30]): 19 (18%) n (%) of patients; Vomiting, Grade 3 (SCLC patients; [30]): 0 n (%) of patients; Vomiting, Grade 4 (SCLC patients; [30]): 0 n (%) of patients
